From US20140073637A1, “AMINO-SUBSTITUTED-ALKYLOXY-BENZO[E]PYRIDO[4,3-B]INDOLE DERIVATIVES AS NEW POTENT KINASE INHIBITORS” (INSTITUT CURIE, priority 2011, published 2014)
Where two headings read alike, the source gives them in different places.

How the values were obtained:
NUAK1 = molecular target: T1, NUAK1 (Homo sapiens, UniProt O60285); assay: Nuak1 inhibition in cellulo: LATS1 stabilization by western blot; assay type: cell-based; conditions: HeLa cells treated ON; whole cell extracts, WB, compared to control
T1 construct: Reaction biology Corp (USA), service
T1 sequence (O60285 1-661): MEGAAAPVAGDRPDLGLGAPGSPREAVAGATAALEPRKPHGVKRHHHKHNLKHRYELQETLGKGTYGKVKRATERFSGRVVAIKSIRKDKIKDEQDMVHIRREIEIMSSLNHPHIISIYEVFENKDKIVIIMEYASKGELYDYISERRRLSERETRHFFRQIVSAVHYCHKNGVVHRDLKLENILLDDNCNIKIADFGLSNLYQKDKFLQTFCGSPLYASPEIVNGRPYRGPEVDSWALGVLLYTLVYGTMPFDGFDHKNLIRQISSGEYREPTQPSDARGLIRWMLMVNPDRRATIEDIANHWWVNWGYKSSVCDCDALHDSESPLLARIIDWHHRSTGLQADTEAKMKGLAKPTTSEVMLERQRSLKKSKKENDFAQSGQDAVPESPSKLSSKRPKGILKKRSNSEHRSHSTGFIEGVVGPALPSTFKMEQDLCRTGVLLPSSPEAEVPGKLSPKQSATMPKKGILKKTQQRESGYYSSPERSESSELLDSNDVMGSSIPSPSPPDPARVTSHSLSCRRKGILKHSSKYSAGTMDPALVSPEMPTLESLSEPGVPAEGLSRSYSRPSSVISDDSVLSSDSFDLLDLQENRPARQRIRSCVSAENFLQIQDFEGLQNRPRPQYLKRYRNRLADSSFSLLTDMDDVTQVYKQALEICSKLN
Protocol: HeLa cells were treated ON by C21 (also named CH21) and C14M and compared to the control (C0). Whole cell extracts were analyzed by WB with anti LATS1 monoclonal antibody and the loading was quantified through the tubulin signal.
Therefore the possibility of inhibiting Nuakl, in cellulo, was evaluated through the stabilization of the Large Antigen Tumour Suppressor LATS1.
Cells were treated by compounds, harvested and lyzed in 9M urea then supplemented with Laemmli sample buffer. Cell extracts were subjected to SDS-PAGE and transferred to nitrocellulose filter (GE Healthcare). After blocking with 5% non-fat milk in PBS for at least 1 hour, the membranes were incubated with the primary antibodies. The following antibodies were used: phospho-Histone H3 Ser10 (1:2000, Upstate Biotechnology), anti LAST1 (Cell signalling), anti Aurora B (epitomics) and anti alpha-tubulin (Sigma) Anti-rabbit horseradish peroxidase (1:5000, GE Healthcare) was used as secondary antibodies. Bands were visualized by ECL technique (Amersham Bioscience).

[1] = tested on: HeLa cells stably expressing aurora B-GFP; assay: Time-lapse of HeLa cells expressing aurora B-GFP; assay type: cell-based; conditions: 0.5 μM; continuous imaging
Protocol: FIG. 7A: Cells treated by either DMSO (CO: control) or C1 (0.5 μM) or C14 (0.5 μM) were continuously imaged with a ZEISS confocal microscope. […] Mitotic cells were found fluorescent and GFP was concentrated on the centromeres. In control conditions, centromere aligned at metaphase and upon anaphase ongoing fluorescence concentrates on the spindle and finally in the midbody (A, CO). The shape of the cells is visualized by white dotted lines.
HeLa cells expressing aurora B-GFP were treated by either C14 (0.5 μM) or C1 (0.5 μM) or DMSO (control; Co). Mitotic cells were continuously imaged under controlled conditions (37° C. and 5% CO2). The localisation of aurora B-GFP is represented and the elapsed time indicated in the three conditions (FIG. 7A). Control cells divided normally; Aurora B presented on the centromeres (FIG. 7A, CO, To and 10 min) was then transferred on microtubules (FIG. 7A, CO 45 min) and finally concentrated in the mid body (FIG. 7A, CO, 1 h). […] These cells escaped from mitosis without anaphase and gave rise to micronuclei (FIG. 7B, C1). In the presence of C14 (0.5 μM), chromosome aligned normally (FIG. 7B, C14 To) and aurora B-GFP was found accumulated in the mid-zone (FIG. 7B, C14, 18 min, 40 min and 2 h). Finally, these cells spread again without division (FIG. 7B, C14 4 h). […]

Aurora B = Aurora B (Homo sapiens, UniProt Q96GD4); assay: Kinase profiling in vitro at 1 μM; assay type: biochemical
Protocol: (§1) The specificity of C14 was tested, in vitro, against 121 kinases representative of the kinome. Assays run in duplicate, at the concentration of 1 μM, were performed by MRC (Dundee, UK). Results are represented in FIG. 1. The main targets are highlighted in FIG. 1B.
(§2) In addition, the percentage of remaining activity of recombinant kinases Aurora kinases A and B and Checkpoint kinases 1 and 2 at the concentration of 1 μM of C1, C2 and C14 have been determined.
(§3) The profiling was performed at the MRC (Dundee University), in duplicate, on a set of 121 kinases. The panel is representative of the major different classes of kinases. Compounds were used at the concentration of 1 μM. In vitro, IC50 were determined on recombinant kinases by Reaction biology Corp (USA).

Chk2 = Chk2 (Homo sapiens, UniProt O96017); assay: Kinase profiling in vitro at 1 μM; assay type: biochemical
Protocol: as §1, §2, §3

CHK1 = molecular target: T2, CHK1 (Homo sapiens, UniProt O14757); assay: Kinase profiling in vitro at 1 μM; assay type: biochemical
T2 sequence (O14757 1-476): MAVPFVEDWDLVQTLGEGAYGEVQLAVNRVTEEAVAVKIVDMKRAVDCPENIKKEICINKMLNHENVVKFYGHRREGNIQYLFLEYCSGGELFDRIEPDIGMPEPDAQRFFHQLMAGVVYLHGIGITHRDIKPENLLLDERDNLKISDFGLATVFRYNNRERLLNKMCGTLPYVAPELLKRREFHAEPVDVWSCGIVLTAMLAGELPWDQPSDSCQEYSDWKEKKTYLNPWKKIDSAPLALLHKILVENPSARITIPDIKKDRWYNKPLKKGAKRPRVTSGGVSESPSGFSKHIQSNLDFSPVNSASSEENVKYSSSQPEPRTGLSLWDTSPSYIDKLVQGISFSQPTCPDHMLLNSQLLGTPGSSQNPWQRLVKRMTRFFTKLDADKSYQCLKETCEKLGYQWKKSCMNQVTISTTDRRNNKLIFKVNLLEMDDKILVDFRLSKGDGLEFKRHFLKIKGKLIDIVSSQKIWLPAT
Protocol: as §1, §2, §3

[2] = compound at 1 μM, read-out: percentage of remaining activity of recombinant kinase
[3] = Chk1, compound at 1 μM, read-out: percentage of remaining activity of recombinant kinase
[4] = 1 microMolar in vitro, read-out: Percent of remaining activity

Sequence of Aurora B (Q96GD4 whole entry): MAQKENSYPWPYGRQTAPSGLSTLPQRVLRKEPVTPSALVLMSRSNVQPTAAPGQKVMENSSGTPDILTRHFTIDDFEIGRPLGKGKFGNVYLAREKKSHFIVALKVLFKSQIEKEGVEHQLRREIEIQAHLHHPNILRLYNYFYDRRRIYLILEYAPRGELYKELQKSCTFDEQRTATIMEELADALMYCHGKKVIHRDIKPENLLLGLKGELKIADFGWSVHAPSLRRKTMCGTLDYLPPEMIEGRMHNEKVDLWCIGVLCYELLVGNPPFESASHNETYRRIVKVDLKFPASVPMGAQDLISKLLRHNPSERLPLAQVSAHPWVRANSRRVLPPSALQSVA
Sequence of Chk2 (O96017 whole entry, species assumed): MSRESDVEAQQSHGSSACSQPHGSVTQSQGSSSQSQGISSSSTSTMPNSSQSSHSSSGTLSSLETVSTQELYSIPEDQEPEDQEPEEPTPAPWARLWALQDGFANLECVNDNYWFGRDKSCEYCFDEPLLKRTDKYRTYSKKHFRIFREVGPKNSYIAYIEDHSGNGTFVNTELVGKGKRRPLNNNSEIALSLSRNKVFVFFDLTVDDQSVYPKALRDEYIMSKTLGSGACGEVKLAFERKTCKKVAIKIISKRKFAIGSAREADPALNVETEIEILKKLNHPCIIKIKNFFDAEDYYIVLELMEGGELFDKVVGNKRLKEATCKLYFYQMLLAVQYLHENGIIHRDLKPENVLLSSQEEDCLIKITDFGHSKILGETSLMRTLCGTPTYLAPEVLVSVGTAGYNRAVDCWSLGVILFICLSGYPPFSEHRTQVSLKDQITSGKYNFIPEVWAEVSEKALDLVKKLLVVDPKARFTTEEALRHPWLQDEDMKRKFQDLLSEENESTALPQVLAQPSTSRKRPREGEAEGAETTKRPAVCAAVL

Cc1cncc2c1[nH]c1ccc3cc(OCCN(C)C)ccc3c12 [CH21, 3-(2-N,N-dimethylaminoethyloxy)-8-methyl-7H-benzo[e]pyrido(4,3-b)indole]
LATS1 protein level (in words) (NUAK1): large increase

CCc1c[nH]c(=O)c2c1[nH]c1ccc3cc(OC)ccc3c12 [Compound C1, reference compound]
impairment of mitosis (in words) [1]: prevented anaphase ongoing
remaining activity at 1 µM (Aurora B; [2]): 19%
remaining activity at 1 µM (Chk2; [2]): 6%
remaining activity at 1 µM (CHK1; [3]): 23%

Cc1c[nH]c(=O)c2c1[nH]c1ccc3cc(OCCN(C)C)ccc3c12 [Compound C14, 3-(2-N,N-Dimethylaminoethoxy)-8-methyl-7H,10H-benzo[e]pyrido(4,3-b)indol-11-one]
impairment of mitosis (in words) [1]: affected cytokinesis
remaining activity at 1 µM (Aurora B; [4]): 24%
remaining activity at 1 µM (Aurora B; [2]): 24%
remaining activity at 1 µM (Chk2; [4]): 9%
remaining activity at 1 µM (Chk2; [2]): 9%
remaining activity at 1 µM (CHK1; CHK1, 1 microMolar in vitro, read-out: Percent of remaining activity): 31%
remaining activity at 1 µM (CHK1; [3]): 31%
